Structures can show the parent of a compound that is named as a salt.
Test: Metabolic stability in pooled human liver microsomes
Conditions: for half-life at 1 μM: human, microsomes, pH 7.4
Description: The metabolic stability of compounds of the invention was tested using pooled liver microsomal incubations. Full scan LC-MS analysis was then performed to detect major metabolites. Samples of the test compounds, exposed to pooled human liver microsomes, were analyzed using HPLC-MS (or MS/MS) detection. For determining metabolic stability, multiple reaction monitoring (MRM) was used to measure the disappearance of the test compounds. Q1 full scans were used to detect the major metabolites.
Experimental Procedures. Human liver microsomes (“HLM”; 20 mg/mL) are obtained from Xenotech, LLC (Lenexa, Kans.). β-nicotinamide adenine dinucleotide phosphate, reduced form (NADPH), magnesium chloride (MgCl2), and dimethyl sulfoxide (DMSO) are purchased from Sigma-Aldrich.
Stock solutions of test compounds (7.5 mM) were prepared in DMSO. […] The 20 mg/mL human liver microsomes were diluted to 0.625 mg/mL in 0.1 M potassium phosphate buffer, pH 7.4, containing 3 mM MgCl2. The diluted microsomes (375 μL) were added to wells of a 96-well deep-well polypropylene plate in triplicate. […] Reactions were initiated by addition of 125 μL of pre-warmed NADPH solution (8 mM NADPH in 0.1M potassium phosphate buffer, pH 7.4, containing 3 mM MgCl2). […] The reaction mixtures were incubated at 37° C., and 50 μL aliquots were removed at 0, 5, 10, 20, and 30 minutes and added to shallow-well 96-well plates which contained 50 μL of ice-cold ACN with internal standard to stop the reactions. The plates were stored at 4° C. for 20 minutes after which 100 μL of water was added to the wells of the plate before centrifugation to pellet precipitated proteins. Supernatants were transferred to another 96-well plate and analyzed for amounts of parent remaining by LC-MS/MS using an Applied Bio-systems API 4000 mass spectrometer.
The in vitro t1/2s for test compounds were calculated from the slopes of the linear regression of % parent remaining (ln) vs incubation time relationship. in vitro t1/2=0.693/k, where k=−[slope of linear regression of % parent remaining(ln) vs incubation time]. Data analysis was performed using Microsoft Excel Software.

SMILES | longer t1/2 compared to erlotinib (0.5 mg/mL HLM) [%] | half-life at 1 μM [min]
[2H]C([2H])([2H])OC([2H])([2H])COc1cc2ncnc(Nc3cccc(C#C)c3)c2cc1OCC([2H])([2H])OC([2H])([2H])[2H] [Compound 109, N-(3-(Ethynyl-d1)phenyl)-6,7-bis(2-(methoxy-d3)-2,2-d2-ethoxy) quinazolin-4-amine] | 44 | 83.5
[2H]C([2H])([2H])OCCOc1cc2ncnc(Nc3cccc(C#C)c3)c2cc1OCCOC([2H])([2H])[2H] [Compound 105, N-(3-Ethynylphenyl)-6,7-bis(2-(methoxy-d3)ethoxy)quinazolin-4-amine hydrochloride] | – | 62.3
[2H]C([2H])(COc1cc2ncnc(Nc3cccc(C#C)c3)c2cc1OCC([2H])([2H])OC)OC [Compound 106, N-(3-ethynylphenyl)-6,7-bis(2-methoxyethoxy)quinazolin-4-amine] | – | 43.8
[2H]C#Cc1cccc(Nc2ncnc3cc(OCCOC)c(OCCOC)cc23)c1 [Compound 110, N-(3-(Ethynyl-d1)phenyl)-6,7-bis(2-methoxyethoxy) quinazolin-4-amine hydrochloride] | – | 42.7
C#Cc1cccc(Nc2ncnc3cc(OCCOC)c(OCCOC)cc23)c1 [erlotinib, N-(3-ethynylphenyl)-6,7-bis(2-methoxyethoxy)quinazolin-4-amine, reference compound] | – | 57.8

From patent US20100260674A1, “QUINAZOLINE DERIVATIVES AND METHODS OF TREATMENT” (Concert Pharmaceuticals, Inc., priority 2006, published 2010)
